What was measured:
Format in all cases: cell-based
Ba/F3 BCR-ABL1 WT = target: T1, Ba/F3 BCR-ABL1 WT (Homo sapiens, UniProt P00519+P11274); experiment: Cell growth inhibitory activity assay (CellTiter-Glo), Ba/F3 BCR-ABL1 WT cells; details: 72 h, CTG cell viability
T1 construct: BCR (N-terminal fusion partner of the oncoprotein); expressed in transfected cells; host or cells: Ba/F3 (lentiviral transduction, monoclonal line)
Summary of the method: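 Ba/F3 parental cells or Ba/F3 lines lentivirally transduced with WT or mutant BCR-ABL1, seeded overnight then exposed to serially diluted compound 72 h at 37 °C, 5% CO2. Viability by CellTiter-Glo ATP luminescence with a T0 plate; 0.5% DMSO controls; IC50 from four-parameter nonlinear fit.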

Ba/F3 BCR-ABL1 T315M = target: T2, Ba/F3 BCR-ABL1 T315M (Homo sapiens, UniProt P00519+P11274, T315M); experiment: Cell growth inhibitory activity assay (CellTiter-Glo), Ba/F3 BCR-ABL1 T315M cells; details: 72 h, CTG cell viability
T2 construct: BCR (N-terminal fusion partner of the oncoprotein); expressed in transfected cells; host or cells: Ba/F3 (lentiviral transduction, monoclonal line)
Experimental: In this assay, the Celltiter-Glo (CTG) kit provided by Promega was used, and it is a homogeneous cell viability assay method. The cell viability of cultured cells was measured by quantifying ATP. K562 cells were purchased from Nanjing Kebai, product number CBP60529; Ba/F3 parental cells were purchased from RIKEN BRC, product number RCB0805; other cells containing BCR-ABL1 WT, BCR-ABL1 T315I, BCR-ABL1 T315M, BCR-ABL1 Y253H/E255K, BCR-ABL1 E255V/T3151, BCR-ABL1 A424T, BCR-ABL1 A337V, BCR-ABL1 P465S, BCR-ABL1 V468F, and BCR-ABL1 I502L were all monoclonal engineered cell lines obtained by transducting Ba/F3 parental cells with the lentivirus plasmids containing WT or corresponding mutated BCR-ABL1.
The steps of cell viability assay are as follows: • a) Cells in logarithmic growth phase were collected. Cell suspension was prepared and the cells were counted. Concentration of the cells was calculated. • b) The cell suspension was diluted to the required concentration and then added to the middle wells of a 96-well plate, and PBS was added to the edge wells. The wells with no cells and only culture medium were used as blank controls. • c) In addition to the cell plate used for compound analysis, another 96-well plate was prepared as a T0 plate, and 3-6 blank wells and 3-6 cell wells were added. The next day, CTG was used to test the cell viability as the T0 viability value of the cells. • d) The cell plate was incubated at 37 °C in a 5% CO2 incubator overnight. • e) The next day, each concentration of a compound subjected to a gradient dilution was added, and the cell plate was incubated at 37 °C in a 5% CO2 incubator for 72 h. The wells with no compound and only 0.5% DMSO were used as positive controls for cell growth. • f) CTG reagent (CellTiter-Glo kit) was added according to the manufacturer's instructions to test the cell viability value. • g) The plate was read using Biotek cytation3.0 microplate reader and the data were exported. • h) IC50 was calculated using GraphPad Prism 7.0 software.
The IC50 (half-maximal inhibitory concentration) of the compound was obtained using the following nonlinear fitting formula: Y = Bottom + (Top−Bottom)/(1+10^(∧)((LogIC50−X)*HillSlope)) [formula] • X: Log value of the compound concentration • Y: Inhibition rate (% inhibition) • Top: Maximum response • Bottom: Baseline response • HillSlope: Slope of the curve
The formula for calculating cell inhibition rate (inhibition rate %) was: [formula]

Ba/F3 BCR-ABL1 T315I = target: T3, Ba/F3 BCR-ABL1 T315I (Homo sapiens, UniProt P00519+P11274, T315I); experiment: Cell growth inhibitory activity assay (CellTiter-Glo), Ba/F3 BCR-ABL1 T315I cells; details: 72 h, CTG cell viability
T3 construct: BCR (N-terminal fusion partner of the oncoprotein); expressed in transfected cells; host or cells: Ba/F3 (lentiviral transduction, monoclonal line)
Summary of the method: (§1)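 Luminescent ATP read-out (CellTiter-Glo) after 72 h compound exposure at 37 °C, 5% CO2. Cells: monoclonal Ba/F3 lentivirally engineered with mutant BCR-ABL1, or parental Ba/F3. A T0 plate read the day after seeding; 0.5% DMSO wells as uninhibited growth control. IC50 via variable-slope logistic fit of % inhibition.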

Ba/F3 parental cells = experiment: Cell growth inhibitory activity assay (CellTiter-Glo), Ba/F3 parental cells; details: Mus musculus, BaF3, 72 h, CTG cell viability, read-out: IC50 Ba/F3 BCR-ABL1 Parental
Summary of the method: as §1

K562 cells = experiment: Cell growth inhibitory activity assay (CellTiter-Glo), K562 cells; details: Homo sapiens, 72 h, CTG cell viability
Summary of the method: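 K562 cells in logarithmic growth were counted, diluted and plated in 96-well plates, with medium-only blanks and a separate T0 plate read by CTG the following day. After overnight incubation, graded compound concentrations were added for 72 h, with 0.5% DMSO wells as growth controls. Luminescence was read on a Biotek cytation3.0, and IC50 came from nonlinear fitting in GraphPad Prism 7.0.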

| Structure (SMILES) | IC50 (Ba/F3 BCR-ABL1 WT) [nM] | IC50 (Ba/F3 BCR-ABL1 T315M) [nM] | IC50 (Ba/F3 BCR-ABL1 T315I) [nM] | IC50 (Ba/F3 parental cells) [nM] | IC50 (K562 cells) [nM] |
| --- | --- | --- | --- | --- | --- |
| CC(=O)n1cc2c(n1)-c1cc(-c3cc(C(=O)Nc4ccc(OC(F)(F)Cl)cc4)cc4nc5n(c34)[C@H](C)COC5)cnc1C2 [T-43, (R)-6-(2-acetyl-2,4-dihydropyrazolo[3',4':3,4]cyclopenta[1,2-b]pyridin-7-yl)-N-(4-(chlorodifluoromethoxy)phenyl)-4-methyl-3,4-dihydro-1H-benzo[4,5]imidazo[2,1-c][1,4]oxazine-8-carboxamide] | ≤ 5 | 50 to 1000 | ≤ 5 | > 1000 | ≤ 5 |
| CC(=O)N[C@H]1CCC2c3cc(C(=O)Nc4ccc(OC(F)(F)Cl)cc4)cc(-c4cnc5c(c4)C(=O)N(C)C5)c3N(C(C)C)C21 (stereo partly drawn) [T-11-A, (3S)-3-acetamido-N-(4-(chlorodifluoromethoxy)phenyl)-4-isopropyl-5-(6-methyl-5-oxo-6,7-dihydro-5H-pyrrolo[3,4-b]pyridin-3-yl)-1,2,3,3a,4,8b-hexahydrocyclopenta[b]indole-7-carboxamide] | 50 to 1000 | > 1000 | > 1000 | > 1000 | 50 to 1000 |
| C[C@@H]1CC[S+]([O-])c2nc3cc(C(=O)Nc4ccc(OC(F)(F)Cl)cc4)cc(-c4cnc5c(c4)C(=O)N(C)C5)c3n21 (stereo partly drawn) [T-27, (4R)-N-(4-(chlorodifluoromethoxy)phenyl)-4-methyl-6-(6-methyl-5-oxo-6,7-dihydro-5H-pyrrolo[3,4-b]pyridin-3-yl)-3,4-dihydro-2H-benzo[4,5]imidazo[2,1-b][1,3]thiazine-8-carboxamide 1-oxide] | 5 to 50 | > 1000 | 50 to 1000 | > 1000 | ≤ 5 |
| C[C@@H]1COCc2nc3cc(C(=O)Nc4ccc(OC(F)(F)Cl)cc4)cc(-c4cnc5c(c4)C(=O)NC5)c3n21 [T-30, (R)-N-(4-(chlorodifluoromethoxy)phenyl)-4-methyl-6-(5-oxo-6,7-dihydro-5H-pyrrolo[3,4-b]pyridin-3-yl)-3,4-dihydro-1H-benzo[4,5]imidazo[2,1-c][1,4]oxazine-8-carboxamide] | ≤ 5 | 5 to 50 | 50 to 1000 | > 1000 | ≤ 5 |
| C[C@@H]1CCS(=O)(=O)c2nc3cc(C(=O)Nc4ccc(OC(F)(F)Cl)cc4)cc(-c4cnc5c(c4)C(=O)N(C)C5)c3n21 [T-28, (R)-N-(4-(chlorodifluoromethoxy)phenyl)-4-methyl-6-(6-methyl-5-oxo-6,7-dihydro-5H-pyrrolo[3,4-b]pyridin-3-yl)-3,4-dihydro-2H-benzo[4,5]imidazo[2,1-b][1,3]thiazine-8-carboxamide 1,1-dioxide] | 5 to 50 | 50 to 1000 | 5 to 50 | > 1000 | ≤ 5 |
| C[C@@H]1CCC(F)c2nc3cc(C(=O)Nc4ccc(OC(F)(F)Cl)cc4)cc(-c4cnc5c(c4)C(=O)N(C4CC4)C5)c3n21 (stereo partly shown) [T-35] | ≤ 5 | 5 to 50 | 5 to 50 | > 1000 | ≤ 5 |
| C[C@@H]1CN(C)CCc2nc3cc(C(=O)Nc4ccc(OC(F)(F)Cl)cc4)cc(-c4cnc5c(c4)C(=O)N(C4CC4)C5)c3n21 [T-37, (R)-N-(4-(chlorodifluoromethoxy)phenyl)-10-(6-cyclopropyl-5-oxo-6,7-dihydro-5H-pyrrolo[3,4-b]pyridin-3-yl)-1,3-dimethyl-2,3,4,5-tetrahydro-1H-benzo[4,5]imidazo[1,2-d][1,4]diazepine-8-carboxamide] | > 1000 | > 1000 | > 1000 | > 1000 | 50 to 1000 |
| Nc1nc(N2CC[C@@H](F)C2)c(-c2cnc3c(c2)-c2nn(-c4ncc(F)cn4)cc2C3)cc1C(=O)Nc1ccc(OC(F)(F)Cl)cc1 [T-132, (R)-2-amino-N-(4-(chlorodifluoromethoxy)phenyl)-5-(2-(5-fluoropyrimidin-2-yl)-2,4-dihydropyrazolo[3',4':3,4]cyclopenta[1,2-b]pyridin-7-yl)-6-(3-fluoropyrrolidin-1-yl)nicotinamide] | ≤ 5 | – | ≤ 5 | 50 to 1000 | ≤ 5 |
| C[C@@H]1COCc2nc3cc(C(=O)Nc4ccc(OC(F)(F)Cl)cc4)cc(-c4ccc5c(c4)C(=O)N(C)C5)c3n21 [T-61, (R)-N-(4-(chlorodifluoromethoxy)phenyl)-4-methyl-6-(2-methyl-3-oxoisoindolin-5-yl)-3,4-dihydro-1H-benzo[4,5]imidazo[2,1-c][1,4]oxazine-8-carboxamide] | ≤ 5 | – | 5 to 50 | > 1000 | ≤ 5 |
| C[C@@H]1COCc2nc3cc(C(=O)Nc4ccc(OC(F)(F)Cl)cc4)cc(-c4ccc5c(c4)-c4nn(-c6ncccn6)cc4C5)c3n21 [T-109] | ≤ 5 | – | ≤ 5 | > 1000 | ≤ 5 |
| O=C(Nc1ccc(OC(F)(F)Cl)cc1)c1cnc(N2CC[C@@H](F)C2)c(-c2cnc3c(c2)-c2nn(-c4ncc(N5CC[C@H](F)C5)cn4)cc2C3)c1 [T-55, N-(4-(chlorodifluoromethoxy)phenyl)-6-((R)-3-fluoropyrrolidin-1-yl)-5-(2-(5-((S)-3-fluoropyrrolidin-1-yl)pyrimidin-2-yl)-2,4-dihydropyrazolo[3',4':3,4]cyclopenta[1,2-b]pyridin-7-yl)nicotinamide] | ≤ 5 | – | 5 to 50 | > 1000 | ≤ 5 |
| C[C@@H]1COCc2nc3cc(C(=O)Nc4ccc(OC(F)(F)Cl)cc4)cc(-c4cnc5c(c4)-c4nn(-c6ncc(C(F)(F)F)cn6)cc4C5)c3n21 [T-79, (R)-N-(4-(chlorodifluoromethoxy)phenyl)-4-methyl-6-(2-(5-(trifluoromethyl)pyrimidin-2-yl)-2,4-dihydropyrazolo[3',4':3,4]cyclopenta[1,2-b]pyridin-7-yl)-3,4-dihydro-1H-benzo[4,5]imidazo[2,1-c][1,4]oxazine-8-carboxamide] | ≤ 5 | – | ≤ 5 | > 1000 | ≤ 5 |
| C[C@@H]1CCOc2nc3cc(C(=O)Nc4ccc(OC(F)(F)Cl)cc4)cc(-c4cnc5c(c4)C(=O)N(C)C5)c3n21 [T-24, (R)-N-(4-(chlorodifluoromethoxy)phenyl)-4-methyl-6-(6-methyl-5-oxo-6,7-dihydro-5H-pyrrolo[3,4-b]pyridin-3-yl)-3,4-dihydro-2H-benzo[4,5]imidazo[2,1-b][1,3]oxazine-8-carboxamide] | 5 to 50 | – | 50 to 1000 | > 1000 | ≤ 5 |
| C[C@@H]1COCc2nc3cc(C(=O)Nc4ccc(OC(F)(F)Cl)cc4)cc(-c4cnc5c(c4)-c4nn(-c6nccc(-c7cncc(F)c7)n6)cc4C5)c3n21 [T-96, (R)-N-(4-(chlorodifluoromethoxy)phenyl)-6-(2-(4-(5-fluoropyridin-3-yl)pyrimidin-2-yl)-2,4-dihydropyrazolo[3',4':3,4]cyclopenta[1,2-b]pyridin-7-yl)-4-methyl-3,4-dihydro-1H-benzo[4,5]imidazo[2,1-c][1,4]oxazine-8-carboxamide] | ≤ 5 | – | ≤ 5 | > 1000 | ≤ 5 |
| Cn1ccc(-c2ccnc(-n3cc4c(n3)-c3cc(-c5cc(C(=O)Nc6ccc(OC(F)(F)Cl)cc6)cnc5N5CC[C@@H](F)C5)cnc3C4)n2)n1 [T-26, (R)-N-(4-(chlorodifluoromethoxy)phenyl)-6-(3-fluoropyrrolidin-1-yl)-5-(2-(4-(1-methyl-1H-pyrazol-3-yl)pyrimidin-2-yl)-2,4-dihydropyrazolo[3',4':3,4]cyclopenta[1,2-b]pyridin-7-yl)nicotinamide] | ≤ 5 | – | ≤ 5 | > 1000 | ≤ 5 |
